One experiment relates to Cryptococcus neoformans. The experiment is described as follows: Antifungal susceptibility testing, modified CLSI method. The experiment is classed as cell-based.
The next experiment concerns A. fumigatus. Described as above. It is filed as cell-based. Particulars: Aspergillus fumigatus.
In experiment [1] the test system is L. donovani promastigotes. The experiment in a line: Antileishmanial activity, Alamar Blue assay. The experiment is classed as cell-based, Leishmania donovani. Particulars: for IC50 / IC90: Leishmania donovani; for IC50: read-out: Antileishmanial L. donovani IC50; for IC90: read-out: Antileishmanial L. donovani IC90; for Antileishmanial L. donovani IC50 / Antileishmanial L. donovani IC90: promastigotes; for Antileishmanial L. donovani IC90: 90% inhibition of leishmanial growth.

The subject of experiment [2] is P. falciparum chloroquine sensitive (D6) clone. The experiment is described as follows: In vitro antimalarial activity, plasmodial LDH activity. The experiment is classed as cell-based, Plasmodium falciparum. Particulars: for IC50: Plasmodium falciparum, D6, read-out: Antimalarial P. falciparum D6 Clone IC50.
Experiment [3] has as its system P. falciparum chloroquine resistant (W2) clone. The experiment in a line: microbe, parasite or virus in culture. It is filed as cell-based, Plasmodium falciparum. To be noted: for IC50: Plasmodium falciparum, W2, read-out: Antimalarial P. falciparum W2 Clone IC50.
For experiment [4], the system named is Mycobacterium intracellulare. The experiment is described as follows: Susceptibility by modified Alamar Blue procedure. The experiment is classed as cell-based. In general terms: Alamar Blue is a resazurin reagent that responds to reducing activity.
Another experiment relates to Staphylococcus aureus. The experiment in a line: Antibacterial susceptibility testing, modified CLSI method. It is filed as cell-based. Particulars: for IC50 Antibacterial S. aureus: 50% inhibition of bacterial growth; for IC50 against S. aureus and methicillin resistant S. aureus: range over both compounds and both strains (abstract).
Experiment [5] relates to methicillin resistant S. aureus (MRS). Described as above. The experiment is classed as cell-based, Staphylococcus aureus. To be noted: for IC50 Antibacterial MRS: 50% inhibition of bacterial growth.
The next experiment deals with C. glabrata. The experiment is described as follows: Antifungal susceptibility testing, modified CLSI method. It is filed as cell-based, Candida glabrata. To be noted: 50% inhibition of fungal growth.
Experiment [6] deals with BSL-1 and 2 model organisms (fungi, bacteria, P. falciparum, L. donovani). The experiment in a line: Overall in vitro antimicrobial and antiprotozoal screen. To be noted: for Activity against all other test organisms: fungi and bacteria other than S. aureus and MRS; for Antimicrobial or antiprotozoal activity (overall): all test organisms. The experiment is classed as cell-based.

Setting [7] is: lowest concentration that allows no detectable growth.

The record followed here is PMC3058569 (Chemical biology & drug design, 2010).

The MIC is the lowest concentration found to suppress growth. One may read the IC50 as the concentration that inhibits the measured activity by half. The term IC90 denotes the point of the concentration-response curve where the effect stands at 90%.

In brackets after ≈: the same amount, converted by molar mass. Several values for one entry are separate records, joined by “and”; a condition that tells them apart may be missing. Equal values may be shown once.

On to `C[C@@H]1[C@H](O)[C@@H](C)/C=C/C=C/C=C/C=C/C=C/C=C/C=C/[C@H](O[C@@H]2O[C@H](C)[C@@H](O)[C@H](N)[C@@H]2O)C[C@@H]2O[C@](O)(C[C@@H](O)C[C@@H](O)[C@H](O)CC[C@@H](O)C[C@@H](O)CC(=O)O[C@H]1C)C[C@H](O)[C@H]2C(=O)O` [Amphotericin B], for which the “IC50 Antifungal C. neoformans” value in the experiment with Cryptococcus neoformans (50% inhibition of fungal growth) came out at 1.28 µg/mL (≈ 1.39 µM). Further, the minimum inhibitory concentration (MIC) with Cryptococcus neoformans (Cryptococcus neoformans, read-out: MIC Antifungal C. neoformans) was found to be 2.5 µg/mL (≈ 2.71 µM); in the experiment on A. fumigatus (read-out: MIC Antifungal A. fumigatus), 2.5 µg/mL (≈ 2.71 µM). The concentration for half-maximal inhibition (IC50) amounted to 0.98 µg/mL (≈ 1.06 µM) in the experiment with A. fumigatus (read-out: IC50 Antifungal A. fumigatus) and 0.2 µg/mL (≈ 0.216 µM) in experiment [1]. In experiment [1], the IC90 is 0.4 µg/mL (≈ 0.433 µM).
As to `C[C@@H]1CC[C@H]2[C@@H](C)C(=O)O[C@@H]3O[C@@]4(C)CC[C@@H]1[C@]32OO4` [Artemisinin], the IC50 in experiment [2] was determined as 0.01 µg/mL (≈ 0.0354 µM); in experiment [3], 0.0065 µg/mL (≈ 0.023 µM).
As to `CCN(CC)CCCC(C)Nc1ccnc2cc(Cl)ccc12` (stereo not shown) [Chloroquine], the IC50 in [2] was determined as 0.015 µg/mL (≈ 0.0469 µM); in [3], 0.12 µg/mL (≈ 0.375 µM).
On to `O=C(O)c1cn(C2CC2)c2cc(N3CCNCC3)c(F)cc2c1=O` [Ciprofloxacin], for which, in experiment [4] (Mycobacterium intracellulare, read-out: IC50 Antibacterial M. intracellulare), the half-inhibitory concentration (IC50) came to 0.39 µg/mL (≈ 1.18 µM). Moreover, the MIC in experiment [4] (Mycobacterium intracellulare, read-out: MIC Antibacterial M. intracellulare) is 0.5 µg/mL (≈ 1.51 µM).
For the molecule `NC(=O)c1cc[n+](CCCBr)cc1.[Br-]` [Compound 17], in experiment [2] (chloroquine sensitive clone), the “Antimalarial P. falciparum D6 Clone IC50” value is listed as 3.7 µg/mL. Besides, the “Antimalarial P. falciparum W2 Clone IC50” value in [3] (chloroquine resistant clone) worked out at 4.0 µg/mL.
On to `ON=Cc1cccc[n+]1Cc1ccc(Br)s1.[Cl-]` [Compound 21], for which, in the experiment on Staphylococcus aureus, the “IC50 Antibacterial S. aureus” value is 15.3 µg/mL and 15.27 µg/mL; the “IC50 against S. aureus and methicillin resistant S. aureus” value lay in the range of 12.2 to 17.7 µg/mL. In experiment [5], the “IC50 Antibacterial MRS” value was 14.2 µg/mL and 14.19 µg/mL. For the same molecule, in the experiment on C. glabrata, the “IC50 Antifungal C. glabrata” value is given as greater than 20 µg/mL. Also, in [1], the “Antileishmanial L. donovani IC50” value was 19 µg/mL and the “Antileishmanial L. donovani IC90” value came out at 40 µg/mL. Moreover, in [6], the “Activity against all other test organisms” value is “inactive”.
On to `ON=Cc1cccc[n+]1Cc1csc2ccccc12.[Cl-]` [Compound 24, 1-(Benzothiophene-3-yl)-methyl-2-hydroxyiminomethylpyridinium chloride], for which, in the experiment with Staphylococcus aureus, the “IC50 Antibacterial S. aureus” value is 12.2 µg/mL and 12.23 µg/mL; the “IC50 against S. aureus and methicillin resistant S. aureus” value fell in the range of 12.2 to 17.7 µg/mL. The “MIC Antibacterial S. aureus” value in the experiment on Staphylococcus aureus (setting [7]) worked out at 20 µg/mL. In experiment [5], the “IC50 Antibacterial MRS” value is 17.7 µg/mL and 17.72 µg/mL. For the same molecule, the “MIC Antibacterial MRS” value in experiment [5] (setting [7]) was 20 µg/mL. In experiment [4] (50% inhibition of bacterial growth), the “IC50 Antibacterial M. intracellulare” value is greater than 20 µg/mL. Moreover, in [1], the “Antileishmanial L. donovani IC50” value was determined as 18 µg/mL and the “Antileishmanial L. donovani IC90” value was determined as 40 µg/mL. Further, the “Activity against all other test organisms” value in experiment [6] was “inactive”.
For `O/N=C/c1cc[n+](COC[n+]2ccc(/C=N/O)cc2)cc1` [Compound 37, obidoxime, reference compound], the “Antimicrobial or antiprotozoal activity (overall)” value in experiment [6] was “completely devoid of any antimicrobial or antiprotozoal activities”.
In the case of `ON=Cc1cc[n+](CCC[n+]2ccc(/C=N/O)cc2)cc1` [Compound 42, trimedoxime, reference compound], in experiment [6], the “Antimicrobial or antiprotozoal activity (overall)” value is “completely devoid of any antimicrobial or antiprotozoal activities”.
In the case of `N=C(N)c1ccc(OCCCCCOc2ccc(C(=N)N)cc2)cc1` [Pentamidine, reference compound], in [1], the IC50 turned out to be 1.2 µg/mL (≈ 3.52 µM) and the IC90 was determined as 5 µg/mL (≈ 14.7 µM).
